Measurements published in US20150265656A1, “HUMAN ENDOCRINE PROGENITORS FROM ADULT PANCREATIC TISSUE” (THE JOHNS HOPKINS UNIVERSITY, priority 2012, published 2015).
Peptide text beside a SMILES is read from it. * marks the point of attachment. Cbz = O=C(OCc1ccccc1)*

Columns and labels:
[1] = tested on: NGN3+ cells in cultured adult human pancreatic tissue; test: % NGN3+ nuclei/cells in cultured pancreatic tissue (immunostaining); assay type: cell-based
Procedure: Human cadaveric pancreas tissue that had been enzymatically digested and subjected to density centrifugation (57) was received 2-3 days post mortem. In all experiments, stated replication refers to the number of cultures from individual organ donors unless otherwise defined. Islet purity varied between preparations from <10% to >90%. Pancreatic tissue was resuspended in 10 ml Miami Media 1A (Mediatech) supplemented with freshly prepared 0.01 g/L glutathione and cultured in low adhesion dishes at 37° C. for 4 days. Media was replaced every 2-3 days. Inhibition of γ-secretase was carried out by daily addition of N—[N-(3,5-Difluorophenacetyl-L-alanyl)]-S-phenylglycine t-butyl ester (DAPT, Tocris Biosciences) or 7-Amino-4-chloro-3-methoxyisocoumarin (JLK6, EMD Biosceinces). JAG-1 (ANASPEC), a 17-residue polypeptide corresponding to amino acids 188-204 of the Jagged-1 Notch ligand (58) and a negative control polypeptide comprised of scrambled JAG-1 amino acids were used at 47 μM. A second Notch ligand, Delta-like ligand 4 (D114)(R&D Systems) was used at 500 ng/ml. Inhibition of proteasome degradation was carried out with N-[(Phenylmethoxy)carbonyl]-L-leucyl-N-[(1S)-1-formyl-3-methylbutyl]-L-leucinamide (MG132, Tocris Bioscience) and (2R,3S,4R)-3-Hydroxy-2-[(1S)-1-hydroxy-2-methylpropyl]-4-methyl-5-oxo-2-pyrrolidinecarboxy-N-acetyl-L cysteine thioester (clasto-lactacystin beta-lactone, Tocris Bioscience). Inhibition of EGF receptor kinase was carried out with N-(3-Chlorophenyl)-6,7-dimethoxy-4-quinazolinanine hydrochloride (AG1478, Tocris Bioscience) and with N-(3-Chlorophenyl)-6,7-dimethoxy-4-quinazolinanine hydrochloride (Erlotinib, Cayman Chemical). STAT3 activation was blocked with a cell-permeable analog of the STAT3-SH2 domain-binding phosphopeptide (PpYLKTK-mts, EMD Biosciences).
Tissues stained for NGN3 expression were sectioned and stained as soon as possible after harvest. Freshly sectioned 5-8 micron frozen sections of islet preparation tissue were fixed for 5 min. in 4% paraformaldehyde (PFA) prepared in phosphate buffered saline (PBS), quenched for 5 min in 50 mM glycine in PBS then blocked in 5% donkey serum, 1% BSA in PBS for 30 min. at room temperature. 0.1 to 0.2% Triton-X100 was included for cytoplasmic and nuclear antigens, respectively. Primary antibodies were diluted in blocking buffer; mouse anti-CD133/1 (IgG1) and CD133/2 (IgG2b) unconjugated and conjugated to phycoerythrin (Miltenyi Biotec), mouse anti-cytokeratin 19 (CK19, Chemicon), guinea pig anti-swine insulin (Dako), rabbit anti-CPEP (LINCO), mouse anti-GLU (R&D Systems), goat anti-PDX1 (gift from Chris Wright), mouse anti-CgA (Dako); goat anti-amylase (AMY, Santa Cruz), mouse anti-NGN3 (Developmental Studies Hybridoma Bank, Iowa City, Iowa, hybridoma supernatant), rabbit anti-cleaved caspase-3 (Cell Signaling Technology), rabbit Ki67 (abcam), mouse anti-human E-cadherin (Invitrogen). BrdU and EdU detection were by kit from BD Bioscience and Invitrogen, respectively. Quantitative analysis of protein expression on frozen sections was carried out by imaging >800 nuclei in randomly selected fields for each treatment group. For analysis of CD133+ cells immediately after preparative fluorescent activated cell sorting (FACS), cells were immobilized, fixed and quenched directly on glass slides using a cytospin. For identification and quantification cells within pancospheres, spheres were fixed and stained similarly to tissue sections except all incubations and washes were overnight at 4° C. Stained pancospheres were mounted on coverslipped glass slides. For quantitative analyses, unbiased stereology (Stereo Investigator software) was used to estimate number of nuclei per pancosphere. Sectioned tissue and pancospheres were imaged by confocal microscopy through the Z-axis in a series of 1 micron optical sections using sequential acquisition mode. […] Mean % CPEP, % GLU and % CgA were calculated from a total of 17 pancospheres.

[2] = tested on: HES1 mRNA; test: HES1 mRNA level in cultured pancreatic tissue (quantitative RT-PCR); assay type: cell-based, human; conditions: 4 days of culture
Procedure: (§1) Human cadaveric pancreas tissue that had been enzymatically digested and subjected to density centrifugation (57) was received 2-3 days post mortem. In all experiments, stated replication refers to the number of cultures from individual organ donors unless otherwise defined. Islet purity varied between preparations from <10% to >90%. Pancreatic tissue was resuspended in 10 ml Miami Media 1A (Mediatech) supplemented with freshly prepared 0.01 g/L glutathione and cultured in low adhesion dishes at 37° C. for 4 days. Media was replaced every 2-3 days. […]
(§2) Human adult and fetal pancreas RNA was commercially prepared. […] Levels of HES 1, PTF1A, PDX1, NGN3 and CYCLOPHILLIN A were determined by using Taqman® gene expression assays Hs00172878_m1, Hs00603586_g1, Hs00426216_m1, Hs00360700_g1 and Hs99999904_m1, respectively. Mean levels (6 readings/sample) of genes of interest were normalized to mean levels of CYCLOPHILLIN A. MicroRNAs hsa-mir-15a, hsa-mir-15b, hsa-mir-16 and hsa-mir-195 levels were measured using sequence specific reverse transcriptase primers and TaqMan® detection reagents (Applied Biosystems). Mean levels (6 readings/sample) of miRNAs were normalized to mean levels of 18S rRNA (Applied Biosystems Ribosomal RNA Reagent). Significance of RTPCR data was determined by ANOVA with Bonferroni-Holm Post hoc testing.

[3] = tested on: NGN3 mRNA; test: NGN3 mRNA level in cultured pancreatic tissue (quantitative RT-PCR); assay type: cell-based, human; conditions: 4 days of culture
Procedure: as §1, §2

[4] = tested on: PTF1A mRNA; test: PTF1A mRNA level in cultured pancreatic tissue (quantitative RT-PCR); assay type: cell-based, human; conditions: 4 days of culture
Procedure: as §1, §2

[5] = tested on: pancospheres from CD133+/NGN3+ cells; test: Pancosphere endocrine maturation, hormone-expressing cells; assay type: cell-based, human; conditions: maturation media with 10 μM MPA
Procedure: To form pancospheres, CD133+ cells were resuspended at 2×10^5 cells/ml in HuES media [Knockout DMEM (Invitrogen), 10% Knockout Serum Replacement (Invitrogen), 10% Albumax, 10 ng/ml fibroblast growth factor 2 (FGF2), 1×Na pyruvate, and 1× non-essential amino acids] conditioned by overnight incubation on human SDEC cells (59, 60) and 1-2% Matrigel. Media was supplemented every 3-4 days for up to 21 days. Media was then changed to Maturation media [RPMI 1640, 0.5% BSA, 10 mM nicotinamide, 50 ng/ml human insulin like growth factor II (IGF II, R&D Systems)] for 7 days with addition of fresh nicotinamide and IGF II every 2 days without media change. IGF II was then slowly withdrawn by subsequent 50% media changes. […]
Tissues stained for NGN3 expression were sectioned and stained as soon as possible after harvest. […] Quantitative analysis of protein expression on frozen sections was carried out by imaging >800 nuclei in randomly selected fields for each treatment group. […] For identification and quantification cells within pancospheres, spheres were fixed and stained similarly to tissue sections except all incubations and washes were overnight at 4° C. […] For quantitative analyses, unbiased stereology (Stereo Investigator software) was used to estimate number of nuclei per pancosphere. […] Mean % CPEP, % GLU and % CgA were calculated from a total of 17 pancospheres.

With COc1cc2ncnc(Nc3cccc(Cl)c3)c2cc1OC.Cl [AG1478, N-(3-Chlorophenyl)-6,7-dimethoxy-4-quinazolinanine hydrochloride] the “% NGN3+ cells, % of carrier control” value ([1]; 3 nM AG1478, 4 days) was 69.1%±7.3 and the “% NGN3+ cells, % of carrier control” value ([1]; 30 nM AG1478, 4 days) was 62.3%±8.2.

In the case of C[C@H](NC(=O)Cc1cc(F)cc(F)c1)C(=O)N[C@H](C(=O)OC(C)(C)C)c1ccccc1 [DAPT, N—[N-(3,5-Difluorophenacetyl-L-alanyl)]-S-phenylglycine t-butyl ester], the “level of HES1 mRNA, % of carrier control” value ([2]; 2 μM DAPT) is reported as 63.0%±3.3, the “level of HES1 mRNA, % of carrier control” value ([2]; 20 μM DAPT) is reported as 55.4%±1.5 and the “level of NGN3 mRNA, % of carrier control” value ([3]; 2 μM DAPT) is reported as 927.4%±52.6. The “level of NGN3 mRNA, % of carrier control” value ([3]; 20 μM DAPT) was 1886.3%±102.4, the “level of PTF1A mRNA, % of carrier control” value ([4]; 2 μM DAPT) was 331.2%±10.8 and the “level of PTF1A mRNA, % of carrier control” value ([4]; 20 μM DAPT) was 391.6%±28.8. For the same compound, the “% of cells expressing NGN3 protein, % of carrier control” value ([1]; 2 μM DAPT, 4 days) was 124%±1.1, the “% of cells expressing NGN3 protein, % of carrier control” value ([1]; 20 μM DAPT, 4 days) was 152.0%±2.2 and the “effect on the D114-induced decrease of % NGN3+ cells” value ([1]; DAPT together with D114) was “blocked”.

For C#Cc1cccc(Nc2ncnc3cc(OCCOC)c(OCCOC)cc23)c1 [Erlotinib], the “% NGN3+ cells” value ([1]; 0.25 μM Erlotinib, n=1, data not shown) was 31.0±4.8.

With COc1oc(=O)c2cc(N)ccc2c1Cl [JLK6, 7-Amino-4-chloro-3-methoxyisocoumarin] the “effect on % of cells expressing NGN3 protein” value ([1]; JLK6 treatment, 4 days) was “No significant effect”.

CC(C)C[C@@H](C=O)NC(=O)[C@H](CC(C)C)NC(=O)[C@H](CC(C)C)NC(=O)OCc1ccccc1 [MG132, N-[(Phenylmethoxy)carbonyl]-L-leucyl-N-[(1S)-1-formyl-3-methylbutyl]-L-leucinamide] (Cbz-Leu-Leu-Leu-aldehyde) was tested, and the “% NGN3+ cells, % of carrier control” value ([1]; 1 μM MG132, 4 days) was 182.8%±14.9, the “% NGN3+ cells, % of carrier control” value ([1]; 10 μM MG132, 4 days) was 478.8%±33.6 and the “% NGN3+ cells, % of carrier control” value ([1]; 20 μM MG132, 4 days) was 533.6%±28.9.

With COc1c(C)c2c(c(O)c1C/C=C(\C)CCC(=O)O)C(=O)OC2 [MPA, Mycophenolic acid] the “% cells GLU+ in pancospheres” value ([5]; carrier control 0.58%±0.2, P>0.05) was 1.1%±0.23 and the “% cells CPEP+ in pancospheres” value ([5]; carrier control 1.0±0.3) was 2.9%±0.4.

In the case of “D114: Notch ligand Delta-like ligand 4 (R&D Systems)”, the “% of NGN3+ cells, percent of carrier control” value ([1]; 500 ng/ml, data not shown) is reported as 60.1%±11.4.

“EGF: EGF receptor ligand added to culture (NSDSECPLSHDGYCLHDGVCMYIEALDKYACNCVVGYIGERCQYRDLKWWELR; Epidermal growth factor; UniProt P01133 971-1023, looked up)” was tested, and the “change of % NGN3+ cells” value ([1]; addition of EGF 20 ng/ml) was “failed to significantly change”.

With “JAG-1 peptide: 17-residue polypeptide corresponding to amino acids 188-204 of the Jagged-1 Notch ligand (DDYYYGFGCNKFCRPRD; UniProt P78504 188-204, looked up, fragment)” the “% of cells expressing NGN3 protein, % of cells treated with scrambled peptide (SJAG)” value ([1]; 47 μM, 4 days) was 39.0%±6.5.

With “TGFα: EGF receptor ligand added to culture” the “change of % NGN3+ cells” value ([1]; addition of TGFα 40 ng/ml) was “failed to significantly change”.
